# Laboratory results taken from US20030139361A1, “Drug for gene therapy” (priority 2000, published 2003).
# System: spleen cells derived from PVG rat and mitomycin-treated DA rat
# Assay: Lymphocyte mixed culture test (BrdU incorporation)
# Type: cell-based
# Conditions: 4 days culture, BrdU 10 μM for last 16 hours; FIG. 2
# Description: To study the immunosuppressive activity of the human IDO protein prepared in Example 10, a lymphocyte mixed culture test was carried out. The spleen cells derived from a non-treated PVG rat and the spleen cells derived from a DA rat treated with 25 μg/ml of mitomycin (SIGMA-Aldrich Corporation) were seeded on a U bottom 96-well plate (NUNC Inc.) at 5×10^4/well and at 8×10^6/well, respectively. The IDO protein was then added and culturing was done for 4 days. Sixteen hours before the finish of culturing 5-bromo-2′deoxyuridine (BrdU) was added at a final concentration of 10 μM. The amount of BrdU incorporated into the intracellular DNA was quantified using a BrdU Labeling & Detection Kit III (Roche Diagnostics Inc.).
substance,measurement,value
"human IDO protein: Recombinant human indoleamine 2,3-dioxygenase protein prepared in Example 10 from E. coli",immunosuppressive activity (amount of BrdU incorporated into intracellular DNA),showed the immunosuppressive activity in a concentration-dependent manner
